Measured values reported in ChEMBL document CHEMBL5465560, “Selectivity Literature for EUbOPEN Chemogenomic Library” (2024).

Legend:
[1] = biological target: T1, Serine/threonine-protein kinase greatwall (Homo sapiens) (UniProt Q96GX5); assay: Selectivity interaction (ActivX KiNativ screen (kinase selectivity in THP-1 cell lysates)) EUB0000639a MASTL; assay type: subcellular; settings: lysate, at 1 µM
T1 sequence (whole entry): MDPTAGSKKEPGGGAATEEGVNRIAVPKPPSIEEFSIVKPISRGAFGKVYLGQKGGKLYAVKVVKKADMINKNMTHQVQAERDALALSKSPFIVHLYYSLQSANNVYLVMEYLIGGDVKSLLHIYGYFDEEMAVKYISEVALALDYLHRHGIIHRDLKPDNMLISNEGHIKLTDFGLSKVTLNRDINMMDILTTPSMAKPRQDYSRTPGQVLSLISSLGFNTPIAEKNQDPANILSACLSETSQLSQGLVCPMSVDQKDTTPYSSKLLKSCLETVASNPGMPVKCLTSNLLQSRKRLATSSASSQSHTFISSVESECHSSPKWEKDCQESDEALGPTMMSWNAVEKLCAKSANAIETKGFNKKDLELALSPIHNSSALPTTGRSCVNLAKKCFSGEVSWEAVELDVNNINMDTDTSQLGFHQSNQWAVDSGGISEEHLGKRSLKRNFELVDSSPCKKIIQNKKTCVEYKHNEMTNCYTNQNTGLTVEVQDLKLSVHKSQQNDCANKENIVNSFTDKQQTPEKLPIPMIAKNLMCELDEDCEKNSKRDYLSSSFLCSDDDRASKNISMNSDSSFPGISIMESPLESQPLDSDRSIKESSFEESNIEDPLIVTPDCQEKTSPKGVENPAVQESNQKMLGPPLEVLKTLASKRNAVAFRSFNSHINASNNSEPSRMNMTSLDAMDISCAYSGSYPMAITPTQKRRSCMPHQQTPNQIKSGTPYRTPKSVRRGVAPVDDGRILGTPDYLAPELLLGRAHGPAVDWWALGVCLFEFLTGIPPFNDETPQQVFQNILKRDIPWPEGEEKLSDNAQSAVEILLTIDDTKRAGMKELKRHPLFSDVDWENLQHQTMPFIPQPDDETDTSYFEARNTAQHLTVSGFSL

Focal adhesion kinase 1 = Focal adhesion kinase 1 (Homo sapiens, UniProt Q05397); assay: Selectivity interaction (KinomeScan (DiscoverX)) EUB0000618a PTK2; settings: at 10 µM
Focal adhesion kinase 1, sequence (Q05397 2-1052 limits assumed): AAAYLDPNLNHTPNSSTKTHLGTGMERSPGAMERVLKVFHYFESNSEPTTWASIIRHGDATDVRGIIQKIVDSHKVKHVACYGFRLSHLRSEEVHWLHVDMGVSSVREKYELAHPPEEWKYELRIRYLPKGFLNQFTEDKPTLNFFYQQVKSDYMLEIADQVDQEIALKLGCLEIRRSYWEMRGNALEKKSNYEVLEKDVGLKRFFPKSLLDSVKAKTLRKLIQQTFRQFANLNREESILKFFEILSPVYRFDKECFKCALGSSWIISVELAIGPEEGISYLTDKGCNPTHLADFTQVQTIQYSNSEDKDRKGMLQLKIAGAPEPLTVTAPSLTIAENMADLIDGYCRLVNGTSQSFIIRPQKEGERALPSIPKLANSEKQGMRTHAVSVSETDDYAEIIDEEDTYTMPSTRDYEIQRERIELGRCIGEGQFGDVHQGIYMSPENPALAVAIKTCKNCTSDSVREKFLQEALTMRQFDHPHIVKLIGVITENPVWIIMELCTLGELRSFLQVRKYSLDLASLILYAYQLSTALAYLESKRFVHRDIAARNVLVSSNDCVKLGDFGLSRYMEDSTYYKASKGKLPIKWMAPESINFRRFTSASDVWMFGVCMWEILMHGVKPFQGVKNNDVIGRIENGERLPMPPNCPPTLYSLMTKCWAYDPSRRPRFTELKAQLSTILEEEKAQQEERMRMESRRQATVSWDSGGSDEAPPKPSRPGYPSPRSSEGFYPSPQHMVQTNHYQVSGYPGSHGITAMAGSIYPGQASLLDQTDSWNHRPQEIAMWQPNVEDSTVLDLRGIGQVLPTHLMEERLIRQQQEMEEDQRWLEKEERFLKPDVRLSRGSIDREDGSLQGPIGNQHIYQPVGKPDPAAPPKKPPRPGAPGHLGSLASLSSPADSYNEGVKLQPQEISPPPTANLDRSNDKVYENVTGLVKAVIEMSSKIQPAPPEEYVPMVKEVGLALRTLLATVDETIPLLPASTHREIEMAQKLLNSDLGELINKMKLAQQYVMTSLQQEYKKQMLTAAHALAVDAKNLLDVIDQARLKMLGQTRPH

[2] = biological target: Serine/threonine-protein kinase pim-1 (Homo sapiens, UniProt P11309); settings: at 10 µM
Serine/threonine-protein kinase pim-1, sequence (P11309 whole entry, looked up): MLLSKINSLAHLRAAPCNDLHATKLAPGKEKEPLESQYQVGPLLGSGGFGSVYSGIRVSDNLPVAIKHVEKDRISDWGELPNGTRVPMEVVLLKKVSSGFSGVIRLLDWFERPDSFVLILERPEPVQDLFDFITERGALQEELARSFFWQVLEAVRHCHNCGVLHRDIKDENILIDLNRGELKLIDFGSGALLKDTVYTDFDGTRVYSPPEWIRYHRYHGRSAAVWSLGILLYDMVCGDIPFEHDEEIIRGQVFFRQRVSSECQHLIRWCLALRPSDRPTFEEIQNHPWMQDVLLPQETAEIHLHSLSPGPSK

[3] = biological target: T2, Dual specificity tyrosine-phosphorylation-regulated kinase 2 (Homo sapiens) (UniProt Q92630); assay: Selectivity interaction (KinomeScan (DiscoverX)) EUB0001619a DYRK2; settings: at 1 µM
T2 sequence (whole entry): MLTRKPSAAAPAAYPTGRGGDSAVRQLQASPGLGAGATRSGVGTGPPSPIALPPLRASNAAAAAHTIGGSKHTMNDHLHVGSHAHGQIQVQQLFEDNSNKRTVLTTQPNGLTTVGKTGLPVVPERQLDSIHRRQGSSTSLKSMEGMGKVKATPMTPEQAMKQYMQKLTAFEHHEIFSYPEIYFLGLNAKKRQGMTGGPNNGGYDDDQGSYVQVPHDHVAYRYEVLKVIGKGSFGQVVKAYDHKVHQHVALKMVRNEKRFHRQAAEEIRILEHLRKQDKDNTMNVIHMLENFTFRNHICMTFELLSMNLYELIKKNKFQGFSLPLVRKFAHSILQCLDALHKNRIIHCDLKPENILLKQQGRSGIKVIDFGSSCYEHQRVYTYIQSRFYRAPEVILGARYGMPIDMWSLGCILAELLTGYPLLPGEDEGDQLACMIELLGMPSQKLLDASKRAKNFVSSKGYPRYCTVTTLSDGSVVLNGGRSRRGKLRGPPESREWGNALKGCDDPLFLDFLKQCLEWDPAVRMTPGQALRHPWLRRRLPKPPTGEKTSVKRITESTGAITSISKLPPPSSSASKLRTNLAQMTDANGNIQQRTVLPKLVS

[4] = biological target: T3, Eukaryotic elongation factor 2 kinase (Homo sapiens) (UniProt O00418); assay: Selectivity interaction (ProQinase) EUB0000171b EEF2K
T3 sequence (whole entry): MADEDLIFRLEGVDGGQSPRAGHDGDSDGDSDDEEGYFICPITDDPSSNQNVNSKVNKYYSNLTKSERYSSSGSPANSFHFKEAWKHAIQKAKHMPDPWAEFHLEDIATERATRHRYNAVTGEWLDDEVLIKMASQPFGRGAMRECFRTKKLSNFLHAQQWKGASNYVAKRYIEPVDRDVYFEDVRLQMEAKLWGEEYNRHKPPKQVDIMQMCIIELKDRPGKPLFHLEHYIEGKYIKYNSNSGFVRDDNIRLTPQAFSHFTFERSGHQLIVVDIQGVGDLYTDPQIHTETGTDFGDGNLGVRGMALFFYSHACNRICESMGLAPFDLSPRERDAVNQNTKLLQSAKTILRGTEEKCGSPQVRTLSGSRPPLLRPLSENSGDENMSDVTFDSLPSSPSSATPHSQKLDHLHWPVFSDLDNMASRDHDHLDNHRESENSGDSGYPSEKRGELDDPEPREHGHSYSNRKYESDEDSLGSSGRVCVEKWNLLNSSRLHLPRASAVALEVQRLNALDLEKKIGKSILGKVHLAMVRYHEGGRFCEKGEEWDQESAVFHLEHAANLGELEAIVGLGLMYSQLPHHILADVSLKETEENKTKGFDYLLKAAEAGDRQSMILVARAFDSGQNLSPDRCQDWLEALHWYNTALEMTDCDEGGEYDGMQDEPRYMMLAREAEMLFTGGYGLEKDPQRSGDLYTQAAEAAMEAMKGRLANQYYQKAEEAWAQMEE

## CC[C@@H]1[C@H](F)C(=O)N[C@@H]1COc1nccc2cc(C(N)=O)c(OC)cc12 [ZIMLOVISERTIB]
[1]
  % of inhibition: 35.1%

## O[C@H]1CC[C@H](Nc2ncc3nc(Nc4c(F)cc(F)cc4F)n([C@H]4CCOC4)c3n2)CC1
Focal adhesion kinase 1
  % of control: 100%

## Cc1cc([C@@H](C)Nc2ccccc2C(=O)O)c2nc(N3CCOCC3)cc(=O)n2c1 [AZD-6482]
[2]
  % of control: 100%

## N#Cc1cccc(-c2c[nH]c3ncnc(N4CCOCC4)c23)c1
[3]
  % of control: 92%

## C=CC(=O)Nc1cccc(C(=O)Nc2ccc(Nc3cc(-c4[nH]c(SC)nc4C)ccn3)cc2)c1
[4]; at 1 µM
  % of control: 91%
[4]; at 5 µM
  % of control: 92%
